We go through five molecules from patent US20080293699A1, “Inhibitors of thapsigargin-induced cell death” (priority 2007, published 2008).

Molecules are shown by their SMILES. Like-named read-outs stand apart in the source and are kept apart here.

What all share (format): cell-based, rat
In assay [1] the test system is CSM14.1 cells. Briefly: Primary HTS assay: ATP content (ATPlite) of undifferentiated CSM14.1 cells challenged with thapsigargin. As to conditions: for Activity against thapsigargin-induced cell death / cell protection: cell death assay used for primary screening; for IC50: thapsigargin-induced death of undifferentiated CSM14.1, ATP content. An excerpt:
For convenience, and because transient reductions in temperature that might be associated with large screening experiments could restore Large T activity, we elected to develop our HTS using undifferentiated CSM14.1 cells, with the plan to then confirm hits using differentiated cells. For monitoring cell death, we used a commercially available bioluminescence reagent that determines intracellular ATP content, without requirement for complicated cell processing steps (ATPlite, Perkin Elmer). Thus, ATP was used as a surrogate indicator of cell survival for the primary assay.
Undifferentiated or differentiated CSM14.1 cells were plated at a density of 3,000 cells/well in 40 μL DMEM medium (containing 10% serum, 1 mM L-glutamine, and antibiotics) in 96 well flat-bottom microtiter plates composed of polystrene (Greiner Bio One, polystyrene, white wall, flat bottom, lumitrac, high binding). After overnight incubation at 32° C., DMSO (0.5% v/v) or 100 uM Salubrinal (Sal) in DMSO was delivered. After 2 hrs, 5 uL of a stock solution of 150 uM TG in DMEM medium containing 0.75% (v:v) DMSO to achieve a final concentration of approximately 15 uM. After culturing for 24 hrs, cellular ATP content was measured by addition of 20 uL per well of ATPlite solution (Perkin-Elmer), and then the plates were incubated for three minutes at room temperature, before reading with a Microplate Luminometer (BD Pharmingen Moonlight model 3096).
To determine the reproducibility of the ATP content assay, we prepared a 96-well plate in which half the wells received TG plus DMSO (assay minimum) and half received TG plus Salubrinal (assay maximum), then performed the ATP content studies using undifferentiated CSM14.1 cells (FIG. 6). CSM14.1 cells were cultured overnight at 3,000 cells per well in 96-well flat-bottom plates, then either DMSO (0.5% final concentration) or Salubrinal (100 μM) in DMSO (0.5% final concentration) was added to half the well (48 each). After two hrs, TG was added to all wells (15 μM final). Cells were cultured for 24 hrs, then the ATP content was measured using the ATPlite luminogenic assay. We then adapted this assay to the high-throughput environment, using a Biomex™ FX liquid handler for automated dispensing of assay components into microwells of 96-well plates. First, undifferentiated CSM14.1 cells were grown at 32° C. in DMEM medium supplemented with 10% fetal bovine serum (FBS), 1% penicillin/streptomycin, and 1% L-glutamine in 150 mm×25 mm polystyrene culture dishes to produce approximately 3×10^6 cells. Second, CSM14.1 cells were recovered from cultures by trypsinization when at 80-90% confluence, and suspended at 7.5×10^4 cells/mL in DMEM medium containing 2% FBS, 1 mM L-glutamine, and antibiotics 100 IU penicillin 100 μg/ml streptomycin. Third, the cell suspension was then delivered at 40 μL per well of 96-well plastic microtiter plates (Greiner Bio One, polystyrene, white wall, flat bottom, lumitrac, high binding, cat #655074), and the plates were cultured overnight at 32° C. in a humidified atmosphere in 95% air: 5% CO2. Fourth, using the automated liquid handler, 5 μL of test compounds in 10% DMSO were added to wells in columns 2-11 of the 96-well plates (leaving columns 1 and 12 intact) to achieve an approximate final concentration of 15 μg/mL test compound and a final concentration of 1% DMSO. Fifth, 5 μL of 1 mM Salubrinal in a solution of 10% DMSO:90% DMEM was added to wells of column 1/rows A-D of each plate, while 5 μL of 10% DMSO:90% DMEM solution was added to wells corresponding to column 1/rows E-H and to all wells in column 12. Sixth, the plates were returned to culture.
(In general: In ATP-based viability assays light output follows the ATP content of the culture.)

Assay [2] concerns CSM14.1 cells. Briefly: Annexin V staining viability assay (flow cytometry), thapsigargin-treated undifferentiated CSM14.1 cells. The note with it: hit compounds 25 μM, TG 15 μM. How it is done: Undifferentiated CSM14.1 cells were cultured as for FIG. 16. The next day, DMSO (a, b) (1% final volume), 100 μM Salubrinal (c, d) or 25 μM of hit compounds (1% final DMSO) was added. After two hrs, 15 μM TG was added to all wells except a and c. The plates were returned to culture for 24 hrs, then cells were recovered by trypsinization, transferred to 1.5 ml microcentrifuge tubes, and resuspended in 0.5 mL of Annexin V-binding solution. The percentage of annexin V-negative cells was determined by flow-cytometry (y-axis). Treatments and compounds were the same as in FIG. 16.
One method we have employed, for example, for confirming protection against TG-induced killing uses fluorochrome-conjugated annexin V staining with flow-cytometry analysis to evaluate the percentage cell viability by a method that is independent of the ATP content assay.
FIGS. 16 and 17 show the results of a secondary assay for evaluating the cytoprotective activity of the compounds. In FIG. 16, undifferentiated CSM14.1 cells were cultured at 10^4 cells per well of 24-well plates (Greiner Bio One). The next day, DMSO (a, b) (1% final volume), 100 μM Salubrinal (c, d) or 25 μM of hit compounds (1% final DMSO) was added. After two hrs, 15 μM TG was added to all wells except a and c. A conventional ATP assay was performed to measure survival rate. In FIG. 17 undifferentiated CSM14.1 cells were cultured at 10^4 cells per well of 24-well plates (Greiner Bio One). The next day, DMSO (a, b) (1% final volume), 100 μM Salubrinal (c, d) or 25 μM of hit compounds (1% final DMSO) was added. After two hrs, 15 μM TG was added to all wells except a and c. […] The percentage of annexin V-negative cells was determined by flow-cytometry (y-axis), using a FACSort instrument (Beckton-Dickinson). […]
7) The percentage of annexin V-negative cells was determined by flow-cytometry (y-axis), using a FACSort analysis facility in Burnham (Beckton & Dickinson)

The subject of assay [3] is phospho-c-Jun. Nature of the assay: Immunoblotting of thapsigargin-induced c-Jun phosphorylation in CSM14.1 cells. The note with it: immunoblotting with phospho-specific antibody, 10 μM, 25 μM hits. The source says: After confirming the pathway selectivity of compounds, additional downstream assays can be performed to map the specific signal transduction pathway inhibited by the compounds. In this regard, various antibody reagents are commercially available for assessing the status of the three major pathways known to be activated by ER stress: (1) PERK, (2) Ire1, and (3) ATF6 (Xu et al., J. Clinical Invest., 115:2656-2664, 2005). Immunoblotting experiments can be performed to assess the expression or phosphorylation (using phospho-specific antibodies) of marker proteins in these pathways. […] CSM 14.1 cells were cultured with DMSO or with 25 μM of hit compounds for two hours, followed by treatment of thapsigargin (15 μM). Cell lysates were prepared and analyzed by SDS-PAGE/immunoblotting using antibodies specific for phospho-c-Jun, phospho-eIF2α, phospho-p38 MAPK, and tubulin (a loading control). CSM14.1 cells were cultured with either DMSO or one of the active compounds at 1, 5, and 10 μM, followed two hours later by 15 μM TG. After two hrs, cell lysates were prepared, normalized for protein content, and either analyzed by SDS-PAGE/immunoblotting using anti-p38-MAPK pan-reactive antibody or phospho-specific antibody with ECL-based detection, followed by densitometry analysis of x-ray films, normalizing phosphor-p38 MAPK relative to total p38 MAPK, or analyzed using a meso-scale instrument from MSD and a procedure in which total p38 MAPK is captured on plates, and the relative amounts of phosphorylated protein were determined using phospho-specific antibody (MSD catalog #K15112D1). […] Suppression of p38 MAPK and c-Jun phosphorylation was dose-dependent, and could not be explained by a decline in total levels of these proteins. […] Proteolytic processing of ATF6 was also not inhibited by our hit compounds. […] Screens of other libraries (such as the NIH compound collection) may yield cytoprotective compounds with different mechanisms.
1) CSM14.1 cells were plated at a density of 2×10^5 cells/well at 6 well dish (Greiner Bio one) in DMEM containing 2% FBS and antibiotics.
2) After overnight incubation, cells were treated by DMSO (0.5%) or compounds (25 μM) for two hours, followed by TG (15 uM) treatment.
3) After two hours, cells were lyzed in 250 uL of lysis buffer and subjected to protein concentration decision, and to SDS PAGE/Western blotting using antibodies specific for phospho p38 MAPK (Cell signaling 9211), p38 MAPK (Santa Cruz-C20), phospho c-Jun (Cell signaling 9164), c-Jun (Santa Cruz-SC 1694), phospho eIF2α (Cell signaling 3597) and α-tubulin.
CSM 14.1 cells were cultured with DMSO or with 25 μM of hit compounds for two hours followed by treatment with thapsigargin (15 μM). Cell lysates were prepared and analyzed by SDS-PAGE/immunoblotting using antibodies specific for: c-Jun, phosphor-c-Jun (ser 73), eIF2a, phosphor-eIF2a (ser 51), p38 MAPK, phosphor-p38 MAPK (Thr180/Tyr182), ATF-6, CHOP and tubulin (loading control). ER stress-induced activation of C-Jun and p38 MAPK is suppressed by the 11 hit compounds.
CSM cells were treated with two compounds at increasing doses. Pre-incubation time, thapsigargin treatment, cell extract preparation and immunoblotting protocols were as described previously.
(In general: In western blotting, separated proteins are transferred to a membrane and probed.)

Assay [4] deals with CSM14.1 cells. Nature of the assay: Pilot dose-response of thapsigargin on undifferentiated CSM14.1 cells (ATP content, vital dye exclusion). The method, then: In pilot experiments, undifferentiated CSM14.1 cells were plated at various densities in wells of a 96 well plate, cultured overnight, then the ATP content of the cells was measured using the luminogenic ATPlite reagent (FIG. 4A). We also performed dose-response experiments for thapsigargin (FIG. 4B) by culturing CSM14.1 cells at 3,000 cells per well overnight, then treating the cells with various concentrations of TG or Sal and cultured for 18 hrs before determining ATP content (mean ±SD; n=3) (FIG. 4B). Similarly, we performed dose response experiments for Salubrinal (Sal). Cells were plated and cultured as above, then treated with various concentrations of Salubrinal, followed two hrs later by 15 uM TG. Cells were cultured for 18 hrs, then ATP content was determined (mean ±SD; n=3) (FIG. 4C). […] As a control, we employed Salubrinal, which was reported to block ER stress-induced cell death (Boyce et al., Science, 307:935-939, 2005).

The mark [5] stands for this setting: first assay, read-out: IC50 (μM), first value.
The mark [6] stands for this setting: second assay (value in bold), read-out: IC50 (μM), value from a second assay.
The mark [7] stands for this setting: one value given, read-out: IC50.

As for `O=C(CN1CC[n+]2c(-c3cccs3)csc21)c1ccccc1.[Br-]` [Compound 5979207], the “Activity against thapsigargin-induced cell death / cell protection” value in assay [1] is reported as “potent inhibitor of cell death”. In assay [2], the “Protection against TG-induced cell death measured by annexin V staining” value is “less active”.
One may read the IC50 as the point on the concentration scale where inhibition reaches its midpoint. Take `COc1cccc(CN2CCN(C(=O)c3ccc(-c4ccccc4)cc3)CC2)c1` [Compound 5998734]: the half-inhibitory concentration (IC50) worked out at 20 ± 0.493 µM in assay [1] (setting [5]) and 14.6 ± 26.6 µM in assay [1] (setting [6]). Also, the “Protection against TG-induced cell death measured by annexin V staining” value in assay [2] was “less active”.
Regarding `COc1ccc(C2CC(=O)C3=C(C2)Nc2ccccc2NC3c2ccncc2)cc1OC` (centres unmarked) [Compound 6075841], the “Activity against thapsigargin-induced cell death / cell protection” value in assay [1] was “inactive”. In addition, in assay [1] (setting [7]), the IC50 is > 200 µM. Besides, the “Thapsigargin-induced phosphorylation of c-Jun” value in assay [3] was “fail to suppress”.
Consider `CCCOc1ccc(C2Nc3ccccc3NC3=C2C(=O)CC(c2ccc(OC)c(OC)c2)C3)cc1` (centres unmarked) [Compound 6237877], for which the IC50 was 16.3 ± 0.439 µM in assay [1] (setting [5]), 12.5 ± 0.17 µM in assay [1] (setting [7]) and 12.5 ± 0.17 µM in assay [1] (setting [6]). Moreover, the “Thapsigargin-induced phosphorylation of c-Jun” value in assay [3] is reported as “dose-dependent decrease”.
As to `C/C=C(/C)C(=O)O[C@H]1C(C)=C2[C@H]([C@@H]1OC(=O)CCCCCCC)[C@@](C)(OC(C)=O)C[C@H](OC(=O)CCC)[C@@]1(O)[C@H]2OC(=O)[C@@]1(C)O` [thapsigargin], the “reduction in ATP per well” value in assay [4] (15 μM thapsigargin, 3,000 cells per well, 18 hrs) is ~95%. The cell killing in assay [4] (15 μM thapsigargin, vital dye exclusion assays) was ~95%.
